Measured values taken from article PMC10703858, “A simple and green capillary electrophoresis-mass spectrometry method for therapeutic drug monitoring of colistin in clinical plasma samples” (Heliyon, 2023).
Like-named read-outs stand apart in the source and are kept apart here. Positions of bridges follow the written chain, without caps; N, C: chain ends. Non-standard residues stand in square brackets, D forms with d. Residues, ends and D or L forms follow the SMILES beside them. *: point of attachment. Octanoyl(6-Me) = CCC(C)CCCCC(=O)*; Dab = NCC[CH](N)C(=O)O

Key:
[1] = plasma CST concentration in critically ill patient (CE-MS/MS, TDM); assay type: in vivo, human; settings: CST A + CST B = 100 %, reference standard was 37.2/62.8 %
Protocol: Clinical plasma samples from two critically ill patients were obtained from the Clinic of Hematology and Transfusiology of St Cyril and Methodius Hospital in Bratislava. After collection, the samples were stored at −80 °C. Before the analysis, the samples were thawed at laboratory temperature, vortexed, and then, 30 μL of the plasma sample was mixed with 30 μL of demineralized water and 120 μL of the IS working solution. […] Following this action, the supernatant was injected directly into the CE system from a CE vial.
The application potential of the validated CE-MS method was tested on the plasma samples obtained from the Clinic of Hematology and Transfusiology of St Cyril and Methodius Hospital in Bratislava. Samples were collected from two critically ill patients treated with multiple intravenous antibiotics and antifungals. The samples were collected before and 30 min after the intravenous (i.v.) administration of the drugs. Patient 1 was treated with meropenem, trimethoprim/sulphamethoxazol, and CST. […] The measured plasma CST concentration of patient 1 before drug administration was 0.82 ± 0.02 μg mL^−1 ([…], n = 3). […]
As previously stated, CST is a heterogeneous substance and, as such, differs not only between producers but also across batches produced by the same manufacturer. […] In clinical plasma samples, a reverse percentage representation of the CST forms was detected. […]

[2] = test system: plasma proteins (especially acidic alpha glycoprotein); settings: cited from earlier work
[3] = freeze and thaw stability in plasma QC samples; settings: n = 5
Protocol: (§1) Quality control (QC) samples were prepared at three concentration levels: i.) low QC: 0.28 μg mL^−1 (CST A sulfate) and 0.47 μg mL^−1 (CST B sulfate); ii.) medium QC: 2.79 μg mL^−1 (CST A sulfate) and 4.71 μg mL^−1 (CST B sulfate); and iii.) high QC: 6.51 μg mL^−1 (CST A sulfate) and 10.99 μg mL^−1 (CST B sulfate). The calibration curve and the QC sample solutions were prepared by mixing 30 μL of the CST sulfate standard at the desired concentration level with 30 μL of demineralized water or plasma and 120 μL of the IS working solution. After being vortexed and left to rest at room temperature for 10 min, the samples were centrifuged at 30,000×g for 10 min. Following this action, supernatant was immediately injected from a CE vial. Every sample underwent three measurements.
(§2) During the validation process, two types of stability were assessed: freeze and thaw stability (three cycles of freezing and thawing at room temperature) and short-term stability (sample kept in an autosampler for 24 h at laboratory temperature). In order to compare the findings from the measurements of QC samples stored according to the guidelines with those of newly prepared QC samples, stability experiments were conducted.

[4] = short-term (autosampler) stability in plasma QC samples; settings: n = 5
Protocol: as §1, §2

[5] = parameters: method as in PMID 30500757; settings: used topically and orally; cited from earlier work
[6] = pediatric patients; sum of CST A and CST B; cited from earlier work

For `CCC(C)CCCCC(=O)NC(CCN)C(=O)NC(C(=O)NC(CCN)C(=O)NC1CCNC(=O)C(C(C)O)NC(=O)C(CCN)NC(=O)C(CCN)NC(=O)C(CC(C)C)NC(=O)C(CC(C)C)NC(=O)C(CCN)NC1=O)C(C)O` (stereo not drawn) [CST A, colistin A] ({Octanoyl(6-Me)}-[Dab]T[Dab][Dab][Dab]LL[Dab][Dab]T; lactam 4-C; configuration not given here), the “percentage representation of the CST forms in clinical plasma samples” value [1] is listed as 76.4%, the “binding to plasma proteins” value ([2]; especially to acidic alpha glycoprotein) is listed as 56.6% and the “Freeze-to-thaw stability, Found, QC high” value ([3]; plasma QC high, nominal 6.51 (CST A) / 10.99 (CST B) μg.mL^−1, three freeze-thaw cycles, CE-MS/MS) is listed as 6.54 µg/mL. For the same compound, the “Freeze-to-thaw stability, Found, QC low” value ([3]; plasma QC low, nominal 0.28 (CST A) / 0.47 (CST B) μg.mL^−1, three cycles of freezing and thawing at room temperature, CE-MS/MS) was 0.29 µg/mL, the “Freeze-to-thaw stability, Found, QC medium” value ([3]; plasma QC medium, nominal 2.79 (CST A) / 4.71 (CST B) μg.mL^−1, three freeze-thaw cycles, CE-MS/MS) was 2.81 µg/mL and the “Freeze-to-thaw stability, RE, QC low” value ([3]; relative error in comparison to fresh sample, plasma QC low, three freeze-thaw cycles) was 2.7%. For the same compound, the “Freeze-to-thaw stability, RE, QC medium” value ([3]; relative error in comparison to fresh sample, plasma QC medium, three freeze-thaw cycles) was 1.7%, the “Autosampler stability, Found, QC high” value ([4]; plasma QC high, nominal 6.51 (CST A) / 10.99 (CST B) μg.mL^−1, autosampler 24 h at laboratory temperature, CE-MS/MS) was 6.76 µg/mL and the “Autosampler stability, Found, QC low” value ([4]; plasma QC low, nominal 0.28 (CST A) / 0.47 (CST B) μg.mL^−1, kept in autosampler 24 h at laboratory temperature, pooled human plasma, CE-MS/MS) was 0.29 µg/mL. The “Autosampler stability, Found, QC medium” value ([4]; plasma QC medium, nominal 2.79 (CST A) / 4.71 (CST B) μg.mL^−1, autosampler 24 h at laboratory temperature, CE-MS/MS) was 2.94 µg/mL, the “Autosampler stability, RE, QC high” value ([4]; relative error in comparison to fresh sample, plasma QC high, autosampler 24 h at laboratory temperature) was 2.3% and the “Autosampler stability, RE, QC medium” value ([4]; relative error in comparison to fresh sample, plasma QC medium, autosampler 24 h at laboratory temperature) was 3.3%.

For colistin sulfate, the “absorption from the gastrointestinal tract” value [5] is given as “minimal”.

For Colistin [CST], the “mean steady-state concentration of CST in plasma, median” value [6] is listed as 2.92 µg/mL.

For `CC(C)CCCCC(=O)N[C@@H](CCN)C(=O)N[C@H](C(=O)N[C@@H](CCN)C(=O)N[C@H]1CCNC(=O)[C@H]([C@@H](C)O)NC(=O)[C@H](CCN)NC(=O)[C@H](CCN)NC(=O)[C@H](CC(C)C)NC(=O)[C@@H](CC(C)C)NC(=O)[C@H](CCN)NC1=O)[C@@H](C)O` [CST B, colistin B] (HELM PEPTIDE1{[CC(C)CCCCC(=O)[*:2]].[Dab].T.[Dab].[Dab].[Dab].[dL].L.[Dab].[Dab].T}$PEPTIDE1,PEPTIDE1,5:R3-11:R2$$$V2.0), the “binding to plasma proteins” value [2] is given as 41.7%.
